Results: US20150157588A1, “Pharmaceutical Composition Comprising Amino-Phenyl-Acetic Acid Octadec-(Z)-9-enyl Ester and Use Thereof for Treating Tumors” (Yeda Research and Development Co., Ltd., priority 2012, published 2015)

Legend:
[1] = system: p53 expressing L-12 mouse B cell line; assay: Apoptosis by hypo-diploid nuclei PI staining, transformed B cell line; format: cell-based; conditions: 10 or 100 μg per ml in 5% ethanol solution, 48 h
Protocol: Apoptosis was measured by FACS analysis with a hypo-diploid nuclei propidium iodide (PI) staining of an amino-phenyl-acetic acid octadec-(Z)-9-enyl ester treated p53 expressing L-12 mouse B cell line. FIGS. 4A-4C: L-12 cells treated with 0, 10 or 100 μg/ml of amino-phenyl-acetic acid octadec-(Z)-9-enyl ester in ethanol solution, respectively; FIGS. 4D-4F: L-12 cells treated with 0, 10 or 100 μg/ml of the control reagent 4-methyl-piperazino-acetic acid ethyl ester in ethanol solution, respectively; and FIGS. 4G-4I: L-12 cells treated with an ethanol volume corresponding to 0, 10 or 100 μg/ml of amino-phenyl-acetic acid octadec-(Z)-9-enyl ester, respectively. FL2-A is the measure of fluorescence. […]
(§1) B or T-cell apoptosis was detected by flow cytometry. […] The cells were then subjected to flow cytometric analysis; for each sample 10,000 were collected and cell-cycle distribution was analyzed according to relative DNA content (PI staining). […] The cells were then collected, stained by APO-DIRECT TUNNEL kit (Phnxflow, CITY, Calif., USA); mitochondrial potential was measured by DePsipher (R&D Systems, Minneapolis, Minn.) according to the manufacturer's procedure. Intracellular caspase activity was measured by Apostat kit (R&D Systems), according to the manufacturer's procedure. The cells were analyzed by Flow cytometry using FACSort (Becton Dickinson) and CellQuest software (Becton Dickinson). […]

[2] = system: freshly isolated mouse B cells; assay: Spontaneous apoptosis by hypo-diploid nuclei PI staining, primary B cells; format: cell-based; conditions: 1 or 100 μg/ml in ethanol solution
Protocol: Apoptosis was measured by FACS analysis with a hypo-diploid nuclei propidium iodide (PI) staining of freshly isolated mouse B cells treated with amino-phenyl-acetic acid octadec-(Z)-9-enyl ester in ethanol solution. FIGS. 5A-5C: L-12 cells treated with 0, 1 or 100 μg/ml of amino-phenyl-acetic acid octadec-(Z)-9-enyl ester, respectively; FIGS. 5D-5F: L-12 cells treated with 0, 1 or 100 μg/ml of the control reagent 4-methyl-piperazino-acetic acid ethyl ester, respectively; and FIGS. 5G-5I: L-12 cells treated with an ethanol volume corresponding to 0, 1 or to 100 μg/ml of amino-phenyl-acetic acid octadec-(Z)-9-enyl ester in ethanol solution, respectively.
as §1

For CCOC(=O)CN1CCN(C)CC1 [4-methyl-piperazino-acetic acid ethyl ester, reference compound], which “apoptosis / cell cycle (cells in sub-GO state)” value [1] is on record?
The value was “had no effect”.

And the “spontaneous apoptosis / cell-cycle of primary B cells” value [2]?
Its value is “had no effect”.
